# According to patent US20190256929A1, “PHARMACODYNAMIC BIOMARKERS FOR PERSONALIZED CANCER CARE USING EPIGENETIC MODIFYING AGENTS” (ORYZON GENOMICS, S.A., priority 2016, published 2019):
# Test system: small cell lung cancer cell lines
# Assay: qRT-PCR time- and dosage-dependent expression change of candidate PD markers ASCL1, GRP, NOTCH1 in SCLC cell lines
# Type: cell-based, human
# Procedure: Seven small cell lung cancer cell lines were treated with 0.1 nM, 1 nM and 10 nM (trans)-N1-((1R,2S)-2-phenylcyclopropyl)cyclohexane-1,4-diamine or vehicle 24 hr, 96 hr and 7 days. Lysates were prepared by lysis in RNA lysis buffer containing 1% β-mercaptoethanol. RNA extraction was performed using a Maxwell 16 instrument and a Maxwell 16 LEV simply RNA cells Kit (Promega), according to the manufacturer's instructions. The mRNA expression levels of each cell line after treatment were then measured using qRT-PCR. The RT-qPCR reaction was conducted using a one-step kit (ABI), with a duplexed house-keeping control (Assay ID Hs02800695_m1) using the assays in the table below. The log 2 fold changes for each gene were calculated by comparing with the vehicle controlled samples at 24 hr sampling point.
# Table 6 contains the dose-dependent effect on expression changes for candidate PD markers ASCL1 (Assay ID Hs04187546_g1), GRP (Assay ID Hs01107047_m1) and NOTCH1 (Assay ID Hs01062014_m1).
# [1] = LSD1i responsive cell lines, qRT-PCR
# [2] = NCI-H69, 0.1 nM, 24 hrs, vs vehicle at 24 hr
# [3] = NCI-H69, 0.1 nM, 96 hrs, vs vehicle at 24 hr
# [4] = NCI-H69, 0.1 nM, 168 hrs, vs vehicle at 24 hr
# [5] = NCI-H69, 1 nM, 24 hrs, vs vehicle at 24 hr
# [6] = NCI-H69, 1 nM, 96 hrs, vs vehicle at 24 hr
# [7] = NCI-H69, 1 nM, 168 hrs, vs vehicle at 24 hr
# [8] = NCI-H69, 10 nM, 24 hrs, vs vehicle at 24 hr
# [9] = NCI-H69, 10 nM, 96 hrs, vs vehicle at 24 hr
# [10] = NCI-H69, 10 nM, 168 hrs, vs vehicle at 24 hr
structure (smiles),measurement,setting,value
"N[C@H]1CC[C@H](N[C@@H]2C[C@H]2c2ccccc2)CC1 [RG6016, (trans)-N1-((1R,2S)-2-phenylcyclopropyl)cyclohexane-1,4-diamine]",Log2_FC ASCL1,"DMS-114, 0.1 nM, 24 hrs",−0.28
same,Log2_FC GRP,"DMS-114, 0.1 nM, 24 hrs",0.32
same,Log2_FC NOTCH1,"DMS-114, 0.1 nM, 24 hrs",−0.47
same,Log2_FC ASCL1,"DMS-114, 0.1 nM, 96 hrs",0.18
same,Log2_FC GRP,"DMS-114, 0.1 nM, 96 hrs",0.25
same,Log2_FC NOTCH1,"DMS-114, 0.1 nM, 96 hrs",−0.11
same,Log2_FC ASCL1,"DMS-114, 0.1 nM, 168 hrs",0.93
same,Log2_FC GRP,"DMS-114, 0.1 nM, 168 hrs",0.08
same,Log2_FC NOTCH1,"DMS-114, 0.1 nM, 168 hrs",0.08
same,Log2_FC ASCL1,"DMS-114, 1 nM, 24 hrs",−0.50
same,Log2_FC GRP,"DMS-114, 1 nM, 24 hrs",0.45
same,Log2_FC NOTCH1,"DMS-114, 1 nM, 24 hrs",−0.47
same,Log2_FC ASCL1,"DMS-114, 1 nM, 96 hrs",−0.04
same,Log2_FC GRP,"DMS-114, 1 nM, 96 hrs",−0.34
same,Log2_FC NOTCH1,"DMS-114, 1 nM, 96 hrs",−0.23
same,Log2_FC ASCL1,"DMS-114, 1 nM, 168 hrs",1.02
same,Log2_FC GRP,"DMS-114, 1 nM, 168 hrs",0.86
same,Log2_FC NOTCH1,"DMS-114, 1 nM, 168 hrs",0.08
same,Log2_FC ASCL1,"DMS-114, 10 nM, 24 hrs",−0.52
same,Log2_FC GRP,"DMS-114, 10 nM, 24 hrs",0.51
same,Log2_FC NOTCH1,"DMS-114, 10 nM, 24 hrs",−0.35
same,Log2_FC ASCL1,"DMS-114, 10 nM, 96 hrs",−0.38
same,Log2_FC GRP,"DMS-114, 10 nM, 96 hrs",0.67
same,Log2_FC NOTCH1,"DMS-114, 10 nM, 96 hrs",−0.30
same,Log2_FC ASCL1,"DMS-114, 10 nM, 168 hrs",0.94
same,Log2_FC GRP,"DMS-114, 10 nM, 168 hrs",−0.12
same,Log2_FC NOTCH1,"DMS-114, 10 nM, 168 hrs",0.13
same,Regulation of ASCL1 (FIG. 8),[1],down
same,Regulation of GRP (FIG. 8),[1],down
same,Regulation of NOTCH1 (FIG. 8),[1],up
same,Log2_FC ASCL1,[2],−0.47
same,Log2_FC GRP,[2],−0.77
same,Log2_FC NOTCH1,[2],−0.17
same,Log2_FC ASCL1,[3],−0.63
same,Log2_FC GRP,[3],−1.46
same,Log2_FC NOTCH1,[3],0.57
same,Log2_FC ASCL1,[4],−0.75
same,Log2_FC GRP,[4],−1.26
same,Log2_FC NOTCH1,[4],0.94
same,Log2_FC ASCL1,[5],−0.71
same,Log2_FC GRP,[5],−0.51
same,Log2_FC NOTCH1,[5],0.26
same,Log2_FC ASCL1,[6],−1.33
same,Log2_FC GRP,[6],−2.14
same,Log2_FC NOTCH1,[6],2.26
same,Log2_FC ASCL1,[7],−1.36
same,Log2_FC GRP,[7],−2.12
same,Log2_FC NOTCH1,[7],2.38
same,Log2_FC ASCL1,[8],−0.80
same,Log2_FC GRP,[8],−0.97
same,Log2_FC NOTCH1,[8],1.33
same,Log2_FC ASCL1,[9],−1.40
same,Log2_FC GRP,[9],−2.19
same,Log2_FC NOTCH1,[9],2.42
same,Log2_FC ASCL1,[10],−1.62
same,Log2_FC GRP,[10],−2.85
same,Log2_FC NOTCH1,[10],3.22
same,Log2_FC ASCL1,"NCI-H187, 0.1 nM, 24 hrs",0.07
same,Log2_FC GRP,"NCI-H187, 0.1 nM, 24 hrs",0.16
same,Log2_FC NOTCH1,"NCI-H187, 0.1 nM, 24 hrs",−0.27
same,Log2_FC ASCL1,"NCI-H187, 0.1 nM, 96 hrs",0.24
same,Log2_FC GRP,"NCI-H187, 0.1 nM, 96 hrs",−0.29
same,Log2_FC NOTCH1,"NCI-H187, 0.1 nM, 96 hrs",0.10
same,Log2_FC ASCL1,"NCI-H187, 0.1 nM, 168 hrs",0.11
same,Log2_FC GRP,"NCI-H187, 0.1 nM, 168 hrs",−0.50
same,Log2_FC NOTCH1,"NCI-H187, 0.1 nM, 168 hrs",0.27
same,Log2_FC ASCL1,"NCI-H187, 1 nM, 24 hrs",−0.01
same,Log2_FC GRP,"NCI-H187, 1 nM, 24 hrs",0.05
same,Log2_FC NOTCH1,"NCI-H187, 1 nM, 24 hrs",0.49
same,Log2_FC ASCL1,"NCI-H187, 1 nM, 96 hrs",0.05
same,Log2_FC GRP,"NCI-H187, 1 nM, 96 hrs",−0.03
same,Log2_FC NOTCH1,"NCI-H187, 1 nM, 96 hrs",0.81
same,Log2_FC ASCL1,"NCI-H187, 1 nM, 168 hrs",0.16
same,Log2_FC GRP,"NCI-H187, 1 nM, 168 hrs",−0.59
same,Log2_FC NOTCH1,"NCI-H187, 1 nM, 168 hrs",0.95
same,Log2_FC ASCL1,"NCI-H187, 10 nM, 24 hrs",0.13
same,Log2_FC GRP,"NCI-H187, 10 nM, 24 hrs",−0.16
same,Log2_FC NOTCH1,"NCI-H187, 10 nM, 24 hrs",0.42
same,Log2_FC ASCL1,"NCI-H187, 10 nM, 96 hrs",0.13
same,Log2_FC GRP,"NCI-H187, 10 nM, 96 hrs",−0.61
same,Log2_FC NOTCH1,"NCI-H187, 10 nM, 96 hrs",0.83
same,Log2_FC ASCL1,"NCI-H187, 10 nM, 168 hrs",0.07
same,Log2_FC GRP,"NCI-H187, 10 nM, 168 hrs",−0.67
same,Log2_FC NOTCH1,"NCI-H187, 10 nM, 168 hrs",1.44
same,Log2_FC ASCL1,"NCI-H446, 0.1 nM, 24 hrs",−0.27
same,Log2_FC NOTCH1,"NCI-H446, 0.1 nM, 24 hrs",−0.04
same,Log2_FC NOTCH1,"NCI-H446, 0.1 nM, 96 hrs",−0.13
same,Log2_FC ASCL1,"NCI-H446, 0.1 nM, 168 hrs",−0.56
same,Log2_FC NOTCH1,"NCI-H446, 0.1 nM, 168 hrs",−0.40
same,Log2_FC ASCL1,"NCI-H446, 1 nM, 24 hrs",0.00
same,Log2_FC NOTCH1,"NCI-H446, 1 nM, 24 hrs",−0.02
same,Log2_FC ASCL1,"NCI-H446, 1 nM, 96 hrs",−0.20
same,Log2_FC NOTCH1,"NCI-H446, 1 nM, 96 hrs",0.06
same,Log2_FC ASCL1,"NCI-H446, 1 nM, 168 hrs",0.02
same,Log2_FC NOTCH1,"NCI-H446, 1 nM, 168 hrs",0.29
same,Log2_FC ASCL1,"NCI-H446, 10 nM, 24 hrs",−0.34
same,Log2_FC NOTCH1,"NCI-H446, 10 nM, 24 hrs",0.04
same,Log2_FC NOTCH1,"NCI-H446, 10 nM, 96 hrs",0.16
same,Log2_FC ASCL1,"NCI-H446, 10 nM, 168 hrs",0.58
same,Log2_FC NOTCH1,"NCI-H446, 10 nM, 168 hrs",0.42
same,Log2_FC NOTCH1,"NCI-H510A, 0.1 nM, 24 hrs, vs vehicle at 24 hr",0.53
same,Log2_FC NOTCH1,"NCI-H510A, 0.1 nM, 96 hrs, vs vehicle at 24 hr",1.93
same,Log2_FC NOTCH1,"NCI-H510A, 0.1 nM, 168 hrs, vs vehicle at 24 hr",3.00
same,Log2_FC ASCL1,"NCI-H510A, 0.1 nM, 24 hrs",0.07
same,Log2_FC GRP,"NCI-H510A, 0.1 nM, 24 hrs",0.22
same,Log2_FC ASCL1,"NCI-H510A, 0.1 nM, 96 hrs",0.17
same,Log2_FC GRP,"NCI-H510A, 0.1 nM, 96 hrs",−0.30
same,Log2_FC ASCL1,"NCI-H510A, 0.1 nM, 168 hrs",0.03
same,Log2_FC GRP,"NCI-H510A, 0.1 nM, 168 hrs",−0.44
same,Log2_FC ASCL1,"NCI-H510A, 1 nM, 24 hrs",−0.23
same,Log2_FC GRP,"NCI-H510A, 1 nM, 24 hrs",−0.30
same,Log2_FC NOTCH1,"NCI-H510A, 1 nM, 24 hrs",1.19
same,Log2_FC ASCL1,"NCI-H510A, 1 nM, 96 hrs",−0.50
same,Log2_FC GRP,"NCI-H510A, 1 nM, 96 hrs",−1.75
same,Log2_FC NOTCH1,"NCI-H510A, 1 nM, 96 hrs",2.87
